Columns and labels:
L1210 [1] = experiment: Antitumor activity against mouse L1210 cells implanted in CDF1 mouse assessed as median survival time at 12.8 mg/kg, ip single dose on day 1; type: functional; conditions: route intraperitoneal
L1210 [2] = experiment: Antitumor activity against mouse L1210 cells implanted in CDF1 mouse assessed as median survival time at 6.4 mg/kg, ip single dose on day 1; type: functional; conditions: route intraperitoneal
L1210 [3] = experiment: Antitumor activity against mouse L1210 cells implanted in CDF1 mouse assessed as median survival time at 3.2 mg/kg, ip single dose on day 1; type: functional; conditions: route intraperitoneal
L1210 [4] = experiment: Antitumor activity against mouse L1210 cells implanted in CDF1 mouse assessed as median survival time at 1.6 mg/kg, ip single dose on day 1; type: functional; conditions: route intraperitoneal
L1210 [5] = experiment: Antitumor activity against mouse L1210 cells implanted in CDF1 mouse assessed as median survival time at 0.8 mg/kg, ip single dose on day 1; type: functional; conditions: route intraperitoneal
L1210 [6] = experiment: Antitumor activity against mouse L1210 cells implanted in CDF1 mouse assessed as median survival time at 0.4 mg/kg, ip single dose on day 1; type: functional; conditions: route intraperitoneal
L1210 [7] = experiment: Antitumor activity against mouse L1210 cells implanted in CDF1 mouse assessed as median survival time at 0.2 mg/kg, ip single dose on day 1; type: functional; conditions: route intraperitoneal
L1210 [8] = experiment: Antitumor activity against mouse L1210 cells implanted in CDF1 mouse at 12.8 mg/kg, ip single dose on day 1 relative to control; type: functional; conditions: route intraperitoneal
L1210 [9] = experiment: Antitumor activity against mouse L1210 cells implanted in CDF1 mouse at 6.4 mg/kg, ip single dose on day 1 relative to control; type: functional; conditions: route intraperitoneal
L1210 [10] = experiment: Antitumor activity against mouse L1210 cells implanted in CDF1 mouse at 3.2 mg/kg, ip single dose on day 1 relative to control; type: functional; conditions: route intraperitoneal
L1210 [11] = experiment: Antitumor activity against mouse L1210 cells implanted in CDF1 mouse at 1.6 mg/kg, ip single dose on day 1 relative to control; type: functional; conditions: route intraperitoneal
L1210 [12] = experiment: Antitumor activity against mouse L1210 cells implanted in CDF1 mouse at 0.8 mg/kg, ip single dose on day 1 relative to control; type: functional; conditions: route intraperitoneal
L1210 [13] = experiment: Antitumor activity against mouse L1210 cells implanted in CDF1 mouse at 0.4 mg/kg, ip single dose on day 1 relative to control; type: functional; conditions: route intraperitoneal
L1210 [14] = experiment: Antitumor activity against mouse L1210 cells implanted in CDF1 mouse at 0.2 mg/kg, ip single dose on day 1 relative to control; type: functional; conditions: route intraperitoneal
Mus musculus [15] = experiment: Toxicity in mouse L1210 cells implanted CDF1 mouse assessed as average weight gain at 12.8 mg/kg, ip single dose on day 1; type: organism-based; parameters: dose 12.8 mg/kg, route intraperitoneal; conditions: in vivo
Mus musculus [16] = experiment: Toxicity in mouse L1210 cells implanted CDF1 mouse assessed as average weight gain at 6.4 mg/kg, ip single dose on day 1; type: organism-based; parameters: dose 6.4 mg/kg, route intraperitoneal; conditions: in vivo
Mus musculus [17] = experiment: Toxicity in mouse L1210 cells implanted CDF1 mouse assessed as average weight gain at 3.2 mg/kg, ip single dose on day 1; type: organism-based; parameters: dose 3.2 mg/kg, route intraperitoneal; conditions: in vivo
Mus musculus [18] = experiment: Toxicity in mouse L1210 cells implanted CDF1 mouse assessed as average weight gain at 1.6 mg/kg, ip single dose on day 1; type: organism-based; parameters: dose 1.6 mg/kg, route intraperitoneal; conditions: in vivo
Mus musculus [19] = experiment: Toxicity in mouse L1210 cells implanted CDF1 mouse assessed as average weight gain at 0.8 mg/kg, ip single dose on day 1; type: organism-based; parameters: dose 0.8 mg/kg, route intraperitoneal; conditions: in vivo
Mus musculus [20] = experiment: Toxicity in mouse L1210 cells implanted CDF1 mouse assessed as average weight gain at 0.4 mg/kg, ip single dose on day 1; type: organism-based; parameters: dose 0.4 mg/kg, route intraperitoneal; conditions: in vivo
Mus musculus [21] = experiment: Toxicity in mouse L1210 cells implanted CDF1 mouse assessed as average weight gain at 0.2 mg/kg, ip single dose on day 1; type: organism-based; parameters: dose 0.2 mg/kg, route intraperitoneal; conditions: in vivo
Mus musculus [22] = experiment: Toxicity in mouse L1210 cells implanted CDF1 mouse assessed as survivors on day 5 at 6.4 mg/kg, ip single dose on day 1; type: organism-based; parameters: dose 6.4 mg/kg, route intraperitoneal; conditions: in vivo
Mus musculus [23] = experiment: Toxicity in mouse L1210 cells implanted CDF1 mouse assessed as survivors on day 5 at 3.2 mg/kg, ip single dose on day 1; type: organism-based; parameters: dose 3.2 mg/kg, route intraperitoneal; conditions: in vivo
Mus musculus [24] = experiment: Toxicity in mouse L1210 cells implanted CDF1 mouse assessed as survivors on day 5 at 1.6 mg/kg, ip single dose on day 1; type: organism-based; parameters: dose 1.6 mg/kg, route intraperitoneal; conditions: in vivo
Mus musculus [25] = experiment: Toxicity in mouse L1210 cells implanted CDF1 mouse assessed as survivors on day 5 at 0.8 mg/kg, ip single dose on day 1; type: organism-based; parameters: dose 0.8 mg/kg, route intraperitoneal; conditions: in vivo
Mus musculus [26] = experiment: Toxicity in mouse L1210 cells implanted CDF1 mouse assessed as survivors on day 5 at 0.4 mg/kg, ip single dose on day 1; type: organism-based; parameters: dose 0.4 mg/kg, route intraperitoneal; conditions: in vivo
Mus musculus [27] = experiment: Toxicity in mouse L1210 cells implanted CDF1 mouse assessed as median survival time at 25.6 mg/kg, ip single dose on day 1; type: organism-based; parameters: dose 25.6 mg/kg, route intraperitoneal; conditions: in vivo
L1210 [28] = experiment: Antitumor activity against mouse L1210 cells implanted in CDF1 mouse at 0.2 mg/kg, ip qd for 1 to 5 days relative to control; type: functional; conditions: route intraperitoneal

SMILES: CC[C@@]1(O)C[C@H](O[C@H]2C[C@H](N(C)C)[C@H](O[C@H]3C[C@H](O)[C@H](O[C@H]4C[C@H](O)[C@H](O)[C@H](C)O4)[C@H](C)O3)[C@H](C)O2)c2c(cc3c(c2O)C(=O)c2c(O)ccc(O)c2C3=O)[C@H]1C(=O)OC [MARCELLOMYCIN]
- MST (L1210 [1]): 9.5 days
- MST (L1210 [2]): 8.5 days
- MST (L1210 [3]): 8.5 days
- MST (L1210 [4]): 8 days
- MST (L1210 [5]): 7 days
- MST (L1210 [6]): 6.5 days
- MST (L1210 [7]): 6 days
- T/C (L1210 [8]): 158%
- T/C (L1210 [9]): 142%
- T/C (L1210 [10]): 142%
- T/C (L1210 [11]): 133%
- T/C (L1210 [12]): 117%
- T/C (L1210 [13]): 108%
- T/C (L1210 [14]): 100%
- Activity (Mus musculus [15]): -1.9 g
- Activity (Mus musculus [16]): -1.7 g
- Activity (Mus musculus [17]): -0.5 g
- weight gain (Mus musculus [18]): 1.4 g
- weight gain (Mus musculus [19]): 1.8 g
- weight gain (Mus musculus [20]): 2.8 g
- weight gain (Mus musculus [21]): 2.7 g
- Activity (Mus musculus [22]): Active
- Activity (Mus musculus [23]): Active
- Activity (Mus musculus [24]): Active
- Activity (Mus musculus [25]): Active
- Activity (Mus musculus [26]): Active
- Activity (Mus musculus [27]): Toxic
- T/C (L1210 [28]): 117%
